Among the test systems are SNB-75; SW-620; SK-MEL-5; SR; OVCAR-8; MCF7; MDA-N; UACC-257; SNB-19; HOP-92; LOX IMVI; UACC-62; Malme-3M; OVCAR-5; K562; LXFL 529; M14; T47D; NCI-H460; BT-549.
What all share (assay): DTP human tumour cell line panel, 48 h

SMILES strings stand for the structures.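 Tested at 5 concentrations; 48 h exposure; 96-well plates; endpoints linearly interpolated, else capped at highest concentration. Abbreviation: GI50, concentration required for 50% inhibition of growth.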 Calls of active or inactive are those of the source. No stated cut-off is given here; in the data, active = GI50 up to about 1.1 µM and inactive = higher.

Take `CN(O)C(=S)c1ccccc1`: the GI50 (in general, the concentration that inhibits growth by half) in the experiment on SNB-75 is 4.31 µM (inactive); in the experiment with SW-620 it was 1.25 µM (inactive); with SK-MEL-5, 1.7 µM (inactive); in the experiment on SR, 178 nM (active); with OVCAR-8, 2.47 µM (inactive); with MCF7 it was 1.1 µM (active). Moreover, the GI50 in the experiment with MDA-N is 6.95 µM (inactive); in the experiment with UACC-257, 13.1 µM (inactive); in the experiment with SNB-19, 30.2 µM (inactive); in the experiment with HOP-92, 5.25 µM (inactive); in the experiment with LOX IMVI it was 1.57 µM (inactive); with UACC-62, 1.85 µM (inactive). For the same compound, the GI50 with Malme-3M is 7.82 µM (inactive); with OVCAR-5, 78.5 µM (inactive); in the experiment on K562 it was 347 nM (active); with LXFL 529, 379 nM (active); in the experiment on M14 it was 3.98 µM (inactive); in the experiment on T47D, 16.4 µM (inactive). In addition, the GI50 with NCI-H460 was 2.9 µM (inactive); with BT-549 it was > 100 µM (inactive).

These data come from ChEMBL document CHEMBL1201862, “PubChem BioAssay data set” (2004).
